In US20200323905A1, “METHODS AND COMPOSITIONS FOR MODULATING THE IMMUNE SYSTEM” (Trustees of Boston University, priority 2019, published 2020):
“Also recorded” adds a separate entry of the source.

Experiments:
Type in all cases: cell-based, mouse
[1] = system: WT CD4+ T cells; test: T-cell activation marker expression by flow cytometry after IL-2 and CD3/CD28 stimulation
Experimental: (§1) Spleens from WT or Yap-cKO mice were pushed through a 70 μm mesh (Falcon) using an insulin syringe plunger and washed with PBS. Cells were treated with ACK red blood cell lysis buffer, and splenocyte single-cell suspensions were prepared for magnetic separation or stained for sorting by flow cytometry. CD4^+ or CD8^+ T-cell enrichment was performed using magnetic beads (Miltenyi Biotec or STEMCELL Technologies). Naïve CD4^+ T cells were isolated using a naïve CD4^+ T-cell isolation kit (Miltenyi Biotec).
(§2) Isolated splenocytes or tumor digests were washed with PBS and stained with the LIVE/DEAD fixable near-IR dead cell stain kit (Invitrogen). Cells were then washed with stain buffer (BD), resuspended in stain buffer containing Fc block (BD), and incubated for 5 minutes at 4° C. Surface antibodies were added in predetermined concentrations, and cells were incubated for 30 minutes at 4° C. or 15 minutes at room temperature, before being washed with BD stain buffer and resuspended in PBS for flow cytometric analysis. For intracellular cytokine staining, cells were fixed and permeabilized using the BD Cytofix/Cytoperm Fixation/Permeabilization kit (BD) after dead cell dye and surface staining. For transcription factor staining, the eBioscience Foxp3/transcription factor staining buffer set was used. Flow cytometry analyses were performed on BD LSRII at Boston University School of Medicine Flow Cytometry Facility or at the University of Maryland School of Medicine Center for Innovative Biomedical Resources, Flow Cytometry Shared Service and analyzed by Flowlo (TreeStar).
(§3) Cells were cultured and stimulated in 96-well plates at 1×10^5 cells per well. Plates were coated with anti-CD3 antibody (Biolegend) at concentrations of 0, 0.125, 0.25, 0.5, and 1 μg/ml at 4° C. overnight and were washed twice with PBS before incubation. Cells were stimulated in the anti-CD3-coated plates with soluble anti-CD28 at 2 μg/ml (Biolegend). On days 1 and 3, cells were stained with dead cell dye as well as antibodies recognizing the lineage and activation markers CD3 BUV737 (BD), CD4 BUV395 (BD), CD8 PerCP-Cy5.5 (Biolegend), CD69 PE (Biolegend), CD44 BV650 (Biolegend), and CD25 APC (Biolegend). For proliferation assays, CD4^+ or CD8^+ T cells were isolated and stained using the CellTrace Violet or CFSE Cell Proliferation Kit (Life Technologies). Briefly, purified cells were washed with PBS and incubated with CellTrace dye for 20 minutes at 37° C. protected from light. After 20 minutes, complete RMPI medium was added to the cell suspension, and the cells were incubated 5 minutes further before being washed and resuspended in complete RPMI medium. […] On days 1 and 3, cells were stained with dead cell dye, and proliferation was measured at the same time.

[2] = system: WT CD8+ T cells; test: as above
Experimental: as §1, §2, §3

[3] = system: WT CD4+ and CD8+ T cells; test: T-cell proliferation assay (CellTrace Violet or CFSE); settings: DMSO- versus verteporfin-treated, 3 days post stimulation with IL-2, anti-CD3 and anti-CD28 (FIG. 6K)
Experimental: Cells were cultured and stimulated in 96-well plates at 1×10^5 cells per well. Plates were coated with anti-CD3 antibody (Biolegend) at concentrations of 0, 0.125, 0.25, 0.5, and 1 μg/ml at 4° C. overnight and were washed twice with PBS before incubation. Cells were stimulated in the anti-CD3-coated plates with soluble anti-CD28 at 2 μg/ml (Biolegend). On days 1 and 3, cells were stained with dead cell dye as well as antibodies recognizing the lineage and activation markers CD3 BUV737 (BD), CD4 BUV395 (BD), CD8 PerCP-Cy5.5 (Biolegend), CD69 PE (Biolegend), CD44 BV650 (Biolegend), and CD25 APC (Biolegend). For proliferation assays, CD4^+ or CD8^+ T cells were isolated and stained using the CellTrace Violet or CFSE Cell Proliferation Kit (Life Technologies). Briefly, purified cells were washed with PBS and incubated with CellTrace dye for 20 minutes at 37° C. protected from light. After 20 minutes, complete RMPI medium was added to the cell suspension, and the cells were incubated 5 minutes further before being washed and resuspended in complete RPMI medium. Cells were cultured in 96-well plates at 1×10^5 cells per well and were stimulated using anti-CD3/CD28 dynabeads (Gibco) at a 1:1 ratio with T cells. On days 1 and 3, cells were stained with dead cell dye, and proliferation was measured at the same time.

**Q.** Verteporfin was tested. Which “CD69 expression on WT CD4+ T cells” value ([1]; 72 hours (3 days) post IL-2 and CD3/CD28 stimulation, increasing concentration of verteporfin (FIG. 6I, FIG. 11E)) did it give?
**A.** The value was “increased levels of early activation markers”.

**Q.** And the “CD71 expression on WT CD4+ T cells” value ([1]; 72 hours post IL-2 and CD3/CD28 stimulation, increasing concentration of verteporfin (FIG. 1I))?
**A.** The value was “increased levels of early activation markers CD71”.

**Q.** And the “CD69 expression on WT CD8+ T cells” value ([2]; 72 hours (3 days) post IL-2 and CD3/CD28 stimulation, increasing concentration of verteporfin (FIG. 6J, FIG. 11F))?
**A.** The value was “increased levels of early activation markers”.

**Q.** And the “CD71 expression on WT CD8+ T cells” value ([2]; 72 hours post IL-2 and CD3/CD28 stimulation, increasing concentration of verteporfin (FIG. 1J))?
**A.** The value was “increased levels of early activation markers CD71”.

**Q.** And the “Proliferation of T cells isolated from WT mice” value [3]?
**A.** Its value is “did not significantly affect proliferation; also recorded: neither Yap deletion nor verteporfin treatment significantly impacted T-cell proliferation”.
